Results: paper PMC12049818, “Identification of NUV-244 as a PNPLA3 I148M degrading small molecule” (iScience, 2025)

Target: T1, PNPLA3 I148M-tagRFP (Homo sapiens, UniProt Q9NST1, I148M)
T1 construct: host or cells: Huh7
T1 sequence (Q9NST1 1-481 I148M): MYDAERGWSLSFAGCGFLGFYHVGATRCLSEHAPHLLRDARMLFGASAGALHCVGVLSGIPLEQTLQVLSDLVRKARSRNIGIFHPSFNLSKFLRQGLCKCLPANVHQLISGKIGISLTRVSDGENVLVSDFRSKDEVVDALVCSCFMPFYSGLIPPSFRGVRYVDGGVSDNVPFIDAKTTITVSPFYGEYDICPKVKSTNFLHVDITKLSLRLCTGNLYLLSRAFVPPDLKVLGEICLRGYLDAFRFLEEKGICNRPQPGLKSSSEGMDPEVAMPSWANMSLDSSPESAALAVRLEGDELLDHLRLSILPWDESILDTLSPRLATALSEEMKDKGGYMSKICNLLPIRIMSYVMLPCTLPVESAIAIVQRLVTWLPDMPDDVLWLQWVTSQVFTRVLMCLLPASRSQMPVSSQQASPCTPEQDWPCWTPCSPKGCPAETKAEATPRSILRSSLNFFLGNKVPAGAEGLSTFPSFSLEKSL
Experiment: Time-lapse imaging of PNPLA3 I148M-tagRFP on lipid droplets in Huh7 cells
Type: cell-based
Protocol: To evaluate the kinetics of NUV-244 mediated reduction and degradation of PNPLA3 I148M-tagRFP, we performed time-lapse studies to follow PNPLA3 I148M-tagRFP over time (Figures 5A and 5B). 1μM or 5μM NUV-244 leads to rapid onset of reduction of PNPLA3 I148M-tagRFP on lipid droplets with half maximum effect reached after approximately 2h. To evaluate if PNPLA3 I148M-tagRFP degradation is 26S proteasome dependent, 1μM Bortezomib was co-incubated with NUV-244. Proteasome inhibition prevents PNPLA3 I148M-tagRFP reduction from lipid droplets (Figures 5A and 5B). […] A recent paper identified the E3 ligase responsible for the turnover of endogenous PNPLA3, the ER associated E3 ligase BFAR.[18]
Huh7 cells expressing PNPLA3 I148M-tagRFP were seeded at 4000 cells/well in 30 μL media in 384-well imaging plates (Revvity, PhenoPlate) and stored in a 37°C incubator with 5% CO2 and 95% humidity overnight. Cells were then incubated with Bodipy diluted in growth medium (38nM final concentration) for 1h at 37°C with 5% CO2 and 95% humidity. Cells were treated with DMSO control, 1 μM or 5 μM NUV-244, with or without 1 μM Bortezomib or 5 μM MLN7243. Cells were imaged every 15 minutes over a 20-hour period using an Opera Phenix confocal spinning disc microscope system (Revvity) with a 20x water objective at 561 nm (tagRFP) and 488 nm (BODIPY). Images were analyzed using Harmony software. PNPLA3 I148M-tagRFP intensity on lipid droplets was quantified and compared between treatments.

SMILES	effect of co-treatment on NUV-244 induced decrease of PNPLA3 I148M-tagRFP on lipid droplets (1μM co-treatment with 1μM or 5μM NUV-244)	effect of co-treatment on NUV-244 induced decrease of PNPLA3 I148M-tagRFP on lipid droplets (5μM co-treatment with 1μM or 5μM NUV-244)
CC(C)C[C@H](NC(=O)[C@H](Cc1ccccc1)NC(=O)c1cnccn1)B(O)O [Bortezomib]	rescue of degradation	–
NS(=O)(=O)OC[C@H]1C[C@@H](Nc2ccnc3cc(-c4cccc(SC(F)(F)F)c4)nn23)[C@H](O)[C@@H]1O [MLN7243]	–	rescue of degradation
